From ChEMBL document CHEMBL1649429, “Novel plasmid-encoded ceftazidime-hydrolyzing CTX-M-53 extended-spectrum beta-lactamase from Salmonella enterica serotypes Westhampton and Senftenberg” (Antimicrob Agents Chemother, 2009)
Values after ≈ are worked out from the molar mass of the structure shown.

How the values were obtained:
[1] = Antimicrobial activity against Salmonella enterica serotype Westhampton isolate 04CEB8273SAL expressing CTX-M-53 gene […]; format: functional, Salmonella enterica subsp. enterica serovar Westhampton
[2] = Antimicrobial activity against Salmonella enterica serotype Westhampton isolate 04CEB8273SAL expressing CTX-M-53 gene […] in presence of clavulanic acid; format: functional, Salmonella enterica subsp. enterica serovar Westhampton
[3] = tested on: Escherichia coli; experiment: Antimicrobial activity against Escherichia coli DH10B harboring natural plasmid pWES-1 carrying CTX-M-53 gene […]; format: functional; details: K-12 DH10B
[4] = tested on: Escherichia coli; experiment: Antimicrobial activity against Escherichia coli DH10B harboring natural plasmid pWES-1 carrying CTX-M-53 gene […] in presence of clavulanic acid; format: functional; details: K-12 DH10B
[5] = tested on: Escherichia coli; experiment: Antimicrobial activity against Escherichia coli DH5[alpha] harboring recombinant plasmid carrying CTX-M-53 gene by disk diffusion method; format: functional
[6] = tested on: Escherichia coli; experiment: Antimicrobial activity against Escherichia coli DH5[alpha] harboring recombinant plasmid carrying CTX-M-53 gene […] in presence of clavulanic acid; format: functional
[7] = tested on: Escherichia coli; experiment: Antimicrobial activity against Escherichia coli DH5[alpha] harboring phagemid pBK-CMV […]; format: functional
[8] = tested on: Escherichia coli; experiment: Antimicrobial activity against Escherichia coli DH5[alpha] harboring phagemid pBK-CMV […] in presence of clavulanic acid; format: functional
[9] = tested on: Escherichia coli; experiment: Antimicrobial activity against Escherichia coli DH10B by disk diffusion method; format: functional; details: K-12 DH10B
[10] = tested on: Escherichia coli; experiment: Antimicrobial activity against Escherichia coli DH10B […] in presence of clavulanic acid; format: functional; details: K-12 DH10B
[11] = tested on: Escherichia coli; experiment: Antimicrobial activity against Escherichia coli ATCC 25922 by disk diffusion method; format: functional
[12] = tested on: Escherichia coli; experiment: Antimicrobial activity against Escherichia coli ATCC 25922 […] in presence of clavulanic acid; format: functional
[13] = Antimicrobial activity against Salmonella enterica serotype Westhampton isolate 04CEB8273SAL expressing CTX-M-53 gene by Etest; format: functional, Salmonella enterica subsp. enterica serovar Westhampton
[14] = tested on: Escherichia coli; experiment: Antimicrobial activity against Escherichia coli DH5[alpha] harboring phagemid pBK-CMV by Etest; format: functional
[15] = tested on: Escherichia coli; experiment: Antimicrobial activity against Escherichia coli DH10B by Etest; format: functional; details: K-12 DH10B
[16] = tested on: Escherichia coli; experiment: Antimicrobial activity against Escherichia coli ATCC 25922 by Etest; format: functional
[17] = Antimicrobial activity against Salmonella enterica serotype Westhampton isolate 04CEB8273SAL expressing CTX-M-53 gene […] in presence of Tazobactam; format: functional, Salmonella enterica subsp. enterica serovar Westhampton
[18] = tested on: Escherichia coli; experiment: Antimicrobial activity against Escherichia coli DH10B harboring natural plasmid pWES-1 carrying CTX-M-53 gene […] in presence of Tazobactam; format: functional; details: K-12 DH10B
[19] = tested on: Escherichia coli; experiment: Antimicrobial activity against Escherichia coli DH5[alpha] harboring recombinant plasmid carrying CTX-M-53 gene […] in presence of Tazobactam; format: functional
[20] = tested on: Escherichia coli; experiment: Antimicrobial activity against Escherichia coli DH5[alpha] harboring phagemid pBK-CMV […] in presence of Tazobactam; format: functional
[21] = tested on: Escherichia coli; experiment: Antimicrobial activity against Escherichia coli DH10B […] in presence of Tazobactam; format: functional; details: K-12 DH10B
[22] = tested on: Escherichia coli; experiment: Antimicrobial activity against Escherichia coli ATCC 25922 […] in presence of Tazobactam; format: functional
[23] = Antimicrobial activity against Salmonella enterica serotype Westhampton isolate 04CEB8273SAL CTX-M-53 gene by Etest in presence of clavulanic acid; format: functional, Salmonella enterica subsp. enterica serovar Westhampton
[24] = tested on: Escherichia coli; experiment: Antimicrobial activity against Escherichia coli DH10B harboring natural plasmid pWES-1 carrying CTX-M-53 gene by Etest in presence of clavulanic acid; format: functional; details: K-12 DH10B
[25] = tested on: Escherichia coli; experiment: Antimicrobial activity against Escherichia coli DH5[alpha] harboring recombinant plasmid carrying CTX-M-53 gene by Etest in presence of clavulanic acid; format: functional
[26] = tested on: Escherichia coli; experiment: Antimicrobial activity against Escherichia coli DH5[alpha] harboring phagemid pBK-CMV by Etest in presence of clavulanic acid; format: functional
[27] = tested on: Escherichia coli; experiment: Antimicrobial activity against Escherichia coli DH10B by Etest in presence of clavulanic acid; format: functional; details: K-12 DH10B
[28] = tested on: Escherichia coli; experiment: Antimicrobial activity against Escherichia coli ATCC 25922 by Etest in presence of clavulanic acid; format: functional

| SMILES | MIC [1] [µg/mL] | MIC [3] [µg/mL] | MIC [5] [µg/mL] | MIC [7] [µg/mL] | MIC [9] [µg/mL] | MIC [11] [µg/mL] | further results |
| --- | --- | --- | --- | --- | --- | --- | --- |
| CC1(C)S[C@@H]2[C@H](NC(=O)[C@H](C(=O)O)c3ccsc3)C(=O)N2[C@H]1C(=O)O [TICARCILLIN] | > 256 | > 256 | > 256 | 2 (≈ 5.2 µM) | 8 (≈ 20.8 µM) | 8 (≈ 20.8 µM) | MIC [2]: 128 µg/mL; MIC [4]: 32 µg/mL; MIC [6]: 32 µg/mL; MIC [8]: 2 µg/mL; MIC [10]: 2 µg/mL; MIC [12]: 4 µg/mL |
| C[C@@H](O)[C@H]1C(=O)N2C(C(=O)O)=C(SCCNC=N)C[C@H]12 [IMIPENEM ANHYDROUS] | 0.5 (≈ 1.67 µM) | – | – | – | – | – | – |
| CC(C)(O/N=C(\C(=O)N[C@@H]1C(=O)N2C(C(=O)[O-])=C(C[n+]3ccccc3)CS[C@H]12)c1csc(N)n1)C(=O)O [CEFTAZIDIME] | > 256 | 64 (≈ 117 µM) | 64 | 0.125 (≈ 0.229 µM) | 0.5 (≈ 0.915 µM) | 0.25 (≈ 0.457 µM) | MIC [2]: 2 µg/mL; MIC [4]: 0.5 µg/mL; MIC [6]: 0.125 µg/mL; MIC [8]: 0.125 µg/mL; MIC [10]: 0.5 µg/mL; MIC [12]: 0.125 µg/mL |
| CC1(C)S[C@@H]2[C@H](NC(=O)[C@H](N)c3ccc(O)cc3)C(=O)N2[C@H]1C(=O)O [AMOXICILLIN] | – | – | – | – | – | – | MIC [2]: 8 µg/mL; MIC [4]: 8 µg/mL; MIC [6]: 8 µg/mL; MIC [8]: 4 µg/mL; MIC [10]: 8 µg/mL; MIC [12]: 8 µg/mL |
| CO/N=C(\C(=O)N[C@@H]1C(=O)N2C(C(=O)O)=C(CSc3nc(=O)c(O)nn3C)CS[C@H]12)c1csc(N)n1 [CEFTRIAXONE] | – | – | – | – | – | – | MIC [13]: > 256 µg/mL; MIC [14]: < 0.06 µg/mL; MIC [15]: 0.125 µg/mL (≈ 0.225 µM); MIC [16]: 0.06 µg/mL (≈ 0.108 µM) |
| CC1(C)S[C@@H]2[C@H](NC(=O)[C@H](N)c3ccccc3)C(=O)N2[C@H]1C(=O)O [AMPICILLIN] | > 256 | > 256 | > 256 | – | 4 (≈ 11.4 µM) | 4 (≈ 11.4 µM) | – |
| CCN1CCN(C(=O)N[C@@H](C(=O)N[C@@H]2C(=O)N3[C@@H]2SC(C)(C)[C@@H]3C(=O)O)c2ccccc2)C(=O)C1=O [PIPERACILLIN] | > 256 | > 256 | > 256 | 1 (≈ 1.93 µM) | 2 (≈ 3.86 µM) | 2 (≈ 3.86 µM) | MIC [17]: 16 µg/mL; MIC [18]: 4 µg/mL; MIC [19]: 2 µg/mL; MIC [20]: 1 µg/mL; MIC [21]: 4 µg/mL; MIC [22]: 2 µg/mL |
| C[C@H]1[C@H](NC(=O)/C(=N\OC(C)(C)C(=O)O)c2csc(N)n2)C(=O)N1S(=O)(=O)O [AZTREONAM] | > 256 | 128 (≈ 294 µM) | 128 | < 0.06 | 0.25 (≈ 0.574 µM) | 0.06 (≈ 0.138 µM) | – |
| CO/N=C(\C(=O)N[C@@H]1C(=O)N2C(C(=O)[O-])=C(C[N+]3(C)CCCC3)CS[C@H]12)c1csc(N)n1 | > 32 | 32 (≈ 66.6 µM) | > 32 | – | 0.125 (≈ 0.26 µM) | – | – |
| CO/N=C(\C(=O)N[C@@H]1C(=O)N2C(C(=O)O)=C(COC(C)=O)CS[C@H]12)c1csc(N)n1 [CEFOTAXIME] | – | – | – | – | – | – | MIC [23]: 1 µg/mL; MIC [24]: 0.125 µg/mL; MIC [25]: 0.06 µg/mL; MIC [26]: < 0.06 µg/mL; MIC [27]: 0.125 µg/mL; MIC [28]: 0.06 µg/mL |
| CO[C@@]1(NC(=O)Cc2cccs2)C(=O)N2C(C(=O)O)=C(COC(N)=O)CS[C@@H]21 [CEFOXITIN] | 8 (≈ 18.7 µM) | 4 (≈ 9.36 µM) | 4 | 2 (≈ 4.68 µM) | 4 (≈ 9.36 µM) | 2 (≈ 4.68 µM) | – |
